Like-named read-outs stand apart in the source and are kept apart here.
Key:
BCRP [1] = biological target: T1, BCRP (Homo sapiens, UniProt Q9UNQ0); type: biochemical
T1 sequence (Q9UNQ0 1-655): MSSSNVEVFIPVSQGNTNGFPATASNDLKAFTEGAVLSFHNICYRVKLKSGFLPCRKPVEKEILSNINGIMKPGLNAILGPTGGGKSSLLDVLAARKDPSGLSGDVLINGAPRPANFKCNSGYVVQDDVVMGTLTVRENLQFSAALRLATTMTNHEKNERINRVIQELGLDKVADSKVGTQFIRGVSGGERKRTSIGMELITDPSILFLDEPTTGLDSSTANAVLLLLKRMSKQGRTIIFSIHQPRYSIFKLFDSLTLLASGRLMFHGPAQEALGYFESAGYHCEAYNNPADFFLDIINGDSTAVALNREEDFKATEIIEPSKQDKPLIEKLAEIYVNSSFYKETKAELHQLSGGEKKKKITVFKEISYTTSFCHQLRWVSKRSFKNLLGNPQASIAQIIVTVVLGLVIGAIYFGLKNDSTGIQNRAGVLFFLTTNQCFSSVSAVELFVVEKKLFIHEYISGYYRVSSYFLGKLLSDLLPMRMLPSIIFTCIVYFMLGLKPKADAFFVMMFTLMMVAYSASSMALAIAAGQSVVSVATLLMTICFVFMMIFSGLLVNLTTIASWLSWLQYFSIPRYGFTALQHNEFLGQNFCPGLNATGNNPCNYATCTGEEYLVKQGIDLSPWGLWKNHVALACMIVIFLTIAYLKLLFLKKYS

[2] = type: in vivo, human; details: rosuvastatin 10 mg; for AUC(0-inf) / half-life: plasma; for AUC(0-inf): AUC0–∞; for half-life: t ½
[3] = Pharmacokinetics of allopurinol and febuxostat in healthy volunteers; type: in vivo, human; details: for variation of AUC0–24 between individual participants / variation of Cmax between individual participants: 300 mg allopurinol or 120 mg febuxostat once daily
BCRP [4] = details: in vitro; cited from earlier work
[5] = cited from earlier work
OATP1B1 = details: in vitro; cited from earlier work
OATP1B3 = details: in vitro; cited from earlier work
OATP2B1 = details: in vitro; cited from earlier work
[6] = test system: breast cancer resistance protein (BCRP; encoded by ABCG2); details: in vitro; cited from earlier work
[7] = mice; cited from earlier work
CYP2C8 = details: in vitro; cited from earlier work
CYP2D6 = details: in vitro; cited from earlier work
CYP1A2 = details: in vitro; cited from earlier work
CYP2C9 = details: in vitro; cited from earlier work
CYP2C19 = details: in vitro; cited from earlier work
CYP3A4 = details: in vitro; cited from earlier work
[8] = in vivo in humans; cited from earlier work
[9] = in vivo in humans; cited from earlier work; remark: listed apart in the source
[10] = patients with established cardiovascular disease; cited from earlier work
[11] = cited from earlier work; remark: listed apart in the source
[12] = in vivo in humans; cited from earlier work; remark: listed apart in the source
[13] = 120 mg febuxostat once daily vs placebo
[14] = human, oral, allopurinol phase (300 mg once daily days 1–7), geometric mean (geometric CV)
[15] = human, oral, febuxostat phase (120 mg once daily days 4–7), geometric mean (geometric CV)

## Oc1ncnc2[nH]ncc12 [allopurinol]
BCRP [1]
  IC50: > 200000 nM
[2]; 300 mg allopurinol once daily for 7 days vs placebo
  effect on the pharmacokinetics of rosuvastatin: no statistically significant effect
[3]
  variation of AUC0–24 between individual participants: 4.7 fold
  variation of Cmax between individual participants: 1.8 fold
[3]; human, plasma, oral, 300 mg
  AUC(0-t): 5700 ng·h/mL
  Cmax: 2000 ng/mL
BCRP [4]
  inhibition of BCRP: have not inhibited

## CC1=NN(c2ccc(C)c(C)c2)C(=O)/C1=N\Nc1cccc(-c2cccc(C(=O)O)c2)c1O [eltrombopag]
[5]
  increase of rosuvastatin AUC: 1.6 fold
OATP1B1
  inhibition of OATP1B1: inhibits
OATP1B3
  inhibition of OATP1B3: inhibits
OATP2B1
  inhibition of OATP2B1: inhibits

## Cc1nc(-c2ccc(OCC(C)C)c(C#N)c2)sc1C(=O)O [febuxostat]
BCRP [1]
  IC50: 350 nM
[2]; [13]
  effect on Clrenal of rosuvastatin: remained unaffected
  effect on t ½ of rosuvastatin: remained unaffected
[3]
  variation of AUC0–24 between individual participants: 3.0 fold
  variation of Cmax between individual participants: 5.0 fold
[3]; compared with the noncarriers and one heterozygote, data not shown, preliminary finding
  increase of AUC0–24 in individuals homozygous for SLCO1B1 c.521T>C: 1.8 fold
[3]; human, plasma, oral, 120 mg
  AUC(0-t): 12300 ng·h/mL
  Cmax: 4300 ng/mL
  half-life: 6 h
[6]
  inhibition of BCRP mediated transport of urate: strongly inhibit
[7]
  exposure to the BCRP substrate sulfasalazine: markedly increase
CYP2C8
  inhibition of CYP2C8: weak inhibitor
CYP2D6
  inhibition of CYP2D6: weak inhibitor
CYP1A2
  inhibition of CYP1A2: does not inhibit
CYP2C9
  inhibition of CYP2C9: does not inhibit
CYP2C19
  inhibition of CYP2C19: does not inhibit
CYP3A4
  inhibition of CYP3A4: does not inhibit
[8]
  effect on the pharmacokinetics of rosiglitazone: no effect
[9]
  increase of the AUC of desipramine: 12%
[10]
  all-cause and cardiovascular mortality compared with allopurinol: increases

## O=c1[nH]c(=O)c2c[nH]nc2[nH]1 [oxypurinol]
BCRP [4]
  inhibition of BCRP: have not inhibited

## O=C(O)C[C@H](O)C[C@H](O)/C=C/c1c(C2CC2)nc2ccccc2c1-c1ccc(F)cc1 [pitavastatin]
[11]
  effect of the ABCG2 c.421C>A variant on AUC: no significant effect

## CC[C@H](C)C(=O)O[C@H]1C[C@H](O)C=C2C=C[C@H](C)[C@H](CC[C@@H](O)C[C@@H](O)CC(=O)O)[C@H]21 [pravastatin]
[11]
  effect of the ABCG2 c.421C>A variant on AUC: no significant effect

## CC(C)c1nc(N(C)S(C)(=O)=O)nc(-c2ccc(F)cc2)c1/C=C/[C@@H](O)C[C@@H](O)CC(=O)O [rosuvastatin]
[2]; human, plasma and urine, oral, Clrenal, allopurinol phase (300 mg once daily days 1–7), geometric mean (geometric CV)
  CL renal: 225 mL/min
[2]; [14]
  AUC(0-inf): 53.5 ng·h/mL
  half-life: 10.9 h
[2]; [15]
  AUC(0-inf): 82.5 ng·h/mL
  half-life: 6.3 h
[2]; allopurinol phase (300 mg once daily days 1–7), geometric mean (geometric CV)
  Ae, amount excreted into urine: 0.45 (101%) mg
[2]; geometric mean ratio
  AUC0–∞, allopurinol phase to placebo phase ratio (90% CI): 1.26 (0.98–1.61); P = 0.13
  AUC0–∞, febuxostat phase to placebo phase ratio (90% CI): 1.93 (1.51–2.48); P = 0.001
  Ae, allopurinol phase to placebo phase ratio (90% CI): 0.99 (0.69–1.43); P = 0.98
  Ae, febuxostat phase to placebo phase ratio (90% CI): 1.76 (1.16–2.66); P = 0.03
  Clrenal, allopurinol phase to placebo phase ratio (90% CI): 0.86 (0.65–1.14); P = 0.36
  Clrenal, febuxostat phase to placebo phase ratio (90% CI): 0.82 (0.58–1.14); P = 0.30
  Cmax, allopurinol phase to placebo phase ratio (90% CI): 1.22 (1.02–1.47); P = 0.08
  Cmax, febuxostat phase to placebo phase ratio (90% CI): 2.13 (1.76–2.58); P = 5 × 10^−5
  t ½, allopurinol phase to placebo phase ratio (90% CI): 1.72 (1.03–2.85); P = 0.08
  t ½, febuxostat phase to placebo phase ratio (90% CI): 1.00 (0.75–1.33); P = 0.99
[12]
  increase of AUC by homozygosity for SLCO1B1 c.521T>C: 1.7–2.2 fold
  increase of Cmax by homozygosity for SLCO1B1 c.521T>C: 1.8–2.7 fold

## CCC(C)(C)C(=O)O[C@H]1C[C@@H](C)C=C2C=C[C@H](C)[C@H](CC[C@@H](O)C[C@@H](O)CC(=O)O)[C@H]21 [simvastatin acid]
[11]
  effect of the ABCG2 c.421C>A variant on AUC: no significant effect
